Experimental data from ChEMBL document CHEMBL1125524, “Adenosine A1 antagonists. 2. Structure-activity relationships on diuretic activities and protective effects against acute renal failure” (J Med Chem, 1992).

What was measured:
[1] = test system: Rattus norvegicus; test: Ratio of urinary excretion value (urinary volume) in treated rats to that in control rats, at a peroral dose of 1.6 mg/Kg; format: functional, Urine
[2] = test system: Rattus norvegicus; test: Ratio of urinary excretion value (urinary volume) in treated rats to that in control rats, at a peroral dose of 6.25 mg/Kg; format: functional, Urine
[3] = test system: Rattus norvegicus; test: Ratio of urinary excretion value (Na+ concentration) in treated rats to that in control rats, at a peroral dose of 0.4 mg/Kg; format: functional, Urine
[4] = test system: Rattus norvegicus; test: Oral diuretic activity was measured after oral administration of 1.6 mg/kg to rats(control volume is 0.82+/-0.05); format: functional, Urine
[5] = test system: Rattus norvegicus; test: Percent inhibition of serum creatinine by the compound given as ratio of Cr value in treated to vehicle treated ones after intraperitoneal administration of 1 mg/kg of compound to rats(vehicle 3.91+/-0.37); format: functional; details: ip
[6] = test system: Rattus norvegicus; test: Ratio of urinary excretion value (Na+ concentration) in treated rats to that in control rats, at a peroral dose of 1.6 mg/Kg; format: functional, Urine
[7] = test system: Rattus norvegicus; test: Ratio of urinary excretion value (Na+ concentration) in treated rats to that in control rats, at a peroral dose of 6.25 mg/Kg; format: functional, Urine
[8] = test system: Rattus norvegicus; test: Percent inhibition of Urea nitrogen by the compound given as ratio of UN value in treated to vehicle treated ones after intraperitoneal administration of 1 mg/kg of compound to rats(vehicle 128.9+/-9.3); format: functional; details: ip
[9] = test system: Rattus norvegicus; test: Effect on urinary excretion potassium and sodium after oral administration of 0.4 mg/kg to rats(potassium and sodium excretion in control rat is 0.191+/-0.021); format: functional, Urine
[10] = test system: Rattus norvegicus; test: Percent inhibition of serum creatinine by the compound given as ratio of Cr value in treated to vehicle treated ones after intraperitoneal administration of 1 mg/kg of compound to rats(vehicle 2.89+/-0.42); format: functional; details: ip
[11] = test system: Rattus norvegicus; test: Ratio of urinary excretion value (urinary volume) in treated rats to that in control rats, at a peroral dose of 0.4 mg/Kg; format: functional, Urine
[12] = biological target: Adenosine A2 receptor (Rattus norvegicus, UniProt P29276+P30543)
[13] = test system: Rattus norvegicus; test: Serum creatinine concentration measured after intraperitoneal administration of 1 mg/kg of compound to rats(vehicle 2.89+/-0.42); format: functional
[14] = test system: Rattus norvegicus; test: Oral diuretic activity was measured after oral administration of 0.4 mg/kg to rats(control volume is 0.99+/-0.07); format: functional, Urine
[15] = test system: Rattus norvegicus; test: Serum creatinine concentration measured after intraperitoneal administration of 1 mg/kg of compound to rats(vehicle 3.91+/-0.37); format: functional
[16] = test system: Rattus norvegicus; test: Percent inhibition of Urea nitrogen by the compound given as ratio of UN value in treated to vehicle treated ones after intraperitoneal administration of 1 mg/kg of compound to rats(vehicle 107.7+/-15.2); format: functional; details: ip
[17] = test system: Rattus norvegicus; test: Effect on urinary excretion potassium and sodium after oral administration of 1.6 mg/kg to rats(potassium and sodium excretion in control rat is 0.183+/-0.012); format: functional, Urine
[18] = test system: Rattus norvegicus; test: Ratio of sodium ion/potassium ion concentration in treated rats to that in control rats, at a peroral dose of 1.6 mg/Kg; format: functional
[19] = test system: Rattus norvegicus; test: Ratio of sodium ion/potassium ion concentration in treated rats to that in control rats, at a peroral dose of 0.4 mg/Kg; format: functional
[20] = test system: Rattus norvegicus; test: Urea nitrogen concentration measured after intraperitoneal administration of 1 mg/kg of compound to rats(vehicle 107.7+/-15.2); format: functional
[21] = test system: Rattus norvegicus; test: Urea nitrogen concentration measured after intraperitoneal administration of 1 mg/kg of compound to rats(vehicle 128.9+/-9.3); format: functional
[22] = test system: Rattus norvegicus; test: Ratio of sodium ion/potassium ion concentration in treated rats to that in control rats, at a peroral dose of 0.1 mg/Kg; format: functional
[23] = test system: Rattus norvegicus; test: Ratio of sodium ion/potassium ion concentration in treated rats to that in control rats, at a peroral dose of 0.01 mg/Kg; format: functional
[24] = test system: Rattus norvegicus; test: Percent inhibition of serum creatinine by the compound given as ratio of Cr value in treated to vehicle treated ones after intraperitoneal administration of 1 mg/kg of compound to rats(vehicle 4.27+/-0.24); format: functional; details: ip
[25] = test system: Rattus norvegicus; test: Ratio of urinary excretion value (urinary volume) in treated rats to that in control rats, at a peroral dose of 0.01 mg/Kg; format: functional, Urine
[26] = biological target: T1, Adenosine receptor A1 (Cavia porcellus, UniProt P47745)
T1 sequence (P47745 whole entry): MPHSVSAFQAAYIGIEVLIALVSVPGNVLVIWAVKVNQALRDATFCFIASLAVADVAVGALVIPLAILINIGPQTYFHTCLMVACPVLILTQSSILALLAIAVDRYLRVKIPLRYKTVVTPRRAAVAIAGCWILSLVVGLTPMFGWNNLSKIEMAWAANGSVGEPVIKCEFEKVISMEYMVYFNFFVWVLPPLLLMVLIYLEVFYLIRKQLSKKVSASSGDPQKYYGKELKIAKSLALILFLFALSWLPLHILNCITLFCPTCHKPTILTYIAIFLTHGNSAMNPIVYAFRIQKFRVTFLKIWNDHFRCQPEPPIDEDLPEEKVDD
Description: Binding affinity against adenosine A1 receptor in guinea pig forebrain membranes using N6-[3H]cyclohexyladenosine as radioligand

[27] = test system: Rattus norvegicus; test: Ratio of urinary excretion value (Na+ concentration) in treated rats to that in control rats, at a peroral dose of 0.01 mg/Kg; format: functional, Urine
[28] = test system: Rattus norvegicus; test: Effect on urinary excretion potassium and sodium after oral administration of 0.01 mg/kg to rats(potassium and sodium excretion in control rat is 0.191+/-0.020); format: functional, Urine
[29] = test system: Rattus norvegicus; test: Urea nitrogen concentration measured after intraperitoneal administration of 0.01 mg/kg of compound to rats(vehicle 143.9+/-12.2); format: functional
[30] = test system: Rattus norvegicus; test: Effect on urinary excretion potassium and sodium after oral administration of 0.1 mg/kg to rats(potassium and sodium excretion in control rat is 0.179+/-0.038); format: functional, Urine
[31] = test system: Rattus norvegicus; test: Serum creatinine concentration measured after intraperitoneal administration of 0.1 mg/kg of compound to rats(vehicle 5.08+/-0.14); format: functional
[32] = test system: Rattus norvegicus; test: Percent inhibition of serum creatinine by the compound given as ratio of Cr value in treated to vehicle treated ones after intraperitoneal administration of 0.01 mg/kg of compound to rats(vehicle 4.09+/-0.39); format: functional; details: ip
[33] = test system: Rattus norvegicus; test: Percent inhibition of Urea nitrogen by the compound given as ratio of UN value in treated to vehicle treated ones after intraperitoneal administration of 0.01 mg/kg of compound to rats(vehicle 143.9+/-12.2); format: functional; details: ip
[34] = test system: Rattus norvegicus; test: Urea nitrogen concentration measured after intraperitoneal administration of 0.1 mg/kg of compound to rats(vehicle 165.3+/-4); format: functional
[35] = test system: Rattus norvegicus; test: Ratio of urinary excretion value (urinary volume) in treated rats to that in control rats, at a peroral dose of 0.1 mg/Kg; format: functional, Urine
[36] = test system: Rattus norvegicus; test: Oral diuretic activity was measured after oral administration of 1.6 mg/kg to rats(control volume is 0.93+/-0.03); format: functional, Urine
[37] = test system: Rattus norvegicus; test: Percent inhibition of serum creatinine by the compound given as ratio of Cr value in treated to vehicle treated ones after intraperitoneal administration of 0.1 mg/kg of compound to rats(vehicle 5.08+/-0.14); format: functional; details: ip
[38] = test system: Rattus norvegicus; test: Oral diuretic activity was measured after oral administration of 0.1 mg/kg to rats(control volume is 0.75+/-0.12); format: functional, Urine
[39] = test system: Rattus norvegicus; test: Oral diuretic activity was measured after oral administration of 0.01 mg/kg to rats(control volume is 1.15+/-0.17); format: functional, Urine
[40] = test system: Rattus norvegicus; test: Percent inhibition of Urea nitrogen by the compound given as ratio of UN value in treated to vehicle treated ones after intraperitoneal administration of 0.1 mg/kg of compound to rats(vehicle 165.3+/-4); format: functional; details: ip
[41] = test system: Rattus norvegicus; test: Percent inhibition of Urea nitrogen by the compound given as ratio of UN value in treated to vehicle treated ones after intraperitoneal administration of 1 mg/kg of compound to rats(vehicle 171.5+/-7.7); format: functional; details: ip
[42] = test system: Rattus norvegicus; test: Serum creatinine concentration measured after intraperitoneal administration of 0.01 mg/kg of compound to rats(vehicle 4.09+/-0.39); format: functional
[43] = test system: Rattus norvegicus; test: Urea nitrogen concentration measured after intraperitoneal administration of 1 mg/kg of compound to rats(vehicle 171.5+/-7.7); format: functional
[44] = test system: Rattus norvegicus; test: Ratio of urinary excretion value (Na+ concentration) in treated rats to that in control rats, at a peroral dose of 0.1 mg/Kg; format: functional, Urine
[45] = test system: Rattus norvegicus; test: Effect on urinary excretion potassium and sodium after oral administration of 1.6 mg/kg to rats(potassium and sodium excretion in control rat is 0.173+/-0.015); format: functional, Urine
[46] = test system: Rattus norvegicus; test: Serum creatinine concentration measured after intraperitoneal administration of 1 mg/kg of compound to rats(vehicle 4.27+/-0.24); format: functional

## CCCn1c(=O)c2c(nc(C(C3CC3)C3CC3)n2C)n(CCC)c1=O
[1]
  T/C: 1.8
[2]
  T/C: 1.78
[3]
  T/C: 0.91
[4]
  Urine volume: 1.48 ml 6hr-1 100g-1
[5]
  inhibition in vivo at 1 mg/kg: -15%
[6]
  T/C: 1.48
[7]
  T/C: 2.14
[8]
  inhibition in vivo at 1 mg/kg: 6%
[9]
  Na: 0.174 m equiv 6hr-1 100g-1
[10]
  inhibition in vivo at 1 mg/kg: 44%
[11]
  T/C: 0.97
[12]
  Ki: 29000 nM
[13]
  Cr: 1.63 mg/dL
[14]
  Urine volume: 0.96 ml 6hr-1 100g-1
[15]
  Cr: 4.49 mg/dL
[16]
  inhibition in vivo at 1 mg/kg: 50%
[17]
  Na: 0.271 m equiv 6hr-1 100g-1
[18]
  Na+/K+: 1.21
[19]
  Na+/K+: 0.94
[20]
  UN: 54.1 mg/dL
[21]
  UN: 136.5 mg/dL

## CC(C)Cn1c(=O)n(C)c(=O)c2[nH]c(C3CCCC3)nc21
[1]
  T/C: 2.12
[22]
  Na+/K+: 1.55
[23]
  Na+/K+: 1.22
[24]
  inhibition in vivo at 1 mg/kg: 40%
[25]
  T/C: 1.14
[26]
  Ki: 33 nM
[6]
  T/C: 2.19
[27]
  T/C: 1.35
[28]
  Na: 0.257 m equiv 6hr-1 100g-1
[29]
  UN: 106.4 mg/dL
[30]
  Na: 0.308 m equiv 6hr-1 100g-1
[31]
  Cr: 2.79 mg/dL
[32]
  inhibition in vivo at 0.01 mg/kg: 25%
[33]
  inhibition in vivo at 0.01 mg/kg: 26%
[34]
  UN: 107.3 mg/dL
[12]
  Ki: 880 nM
[35]
  T/C: 2.12
[36]
  Urine volume: 1.97 ml 6hr-1 100g-1
[37]
  inhibition in vivo at 0.1 mg/kg: 45%
[38]
  Urine volume: 1.59 ml 6hr-1 100g-1
[39]
  Urine volume: 1.31 ml 6hr-1 100g-1
[40]
  inhibition in vivo at 0.1 mg/kg: 35%
[41]
  inhibition in vivo at 1 mg/kg: 36%
[42]
  Cr: 3.08 mg/dL
[43]
  UN: 109.5 mg/dL
[18]
  Na+/K+: 1.57
[44]
  T/C: 1.72
[45]
  Na: 0.379 m equiv 6hr-1 100g-1
[46]
  Cr: 2.54 mg/dL
